Article doi:10.1101/041947v2 (biorxiv, 2016)

Test system: A549
Test: cells
Conditions: Homo sapiens, A549, read-out: IC50 nM

Compound `CC[C@]1(O)C[C@@H]2CN(CCc3c([nH]c4ccccc34)[C@@](C(=O)OC)(c3cc4c(cc3OC)N(C)[C@H]3[C@@](O)(C(=O)OC)[C@H](OC(C)=O)[C@]5(CC)C=CCN6CC[C@]43[C@@H]65)C2)C1` [Vinblastine] has an IC50 of 4.2 nM.
